Experimental data taken from patent US20090291883A1, “COMBINATION OF AN IMMUNOSUPPRESSIVE AGENT AND NONSTEROIDAL ANTI -INFLAMMATORY DRUGS TO TREAT DISEASE” (BOSTON MEDICAL CENTER CORPORATION, priority 2006, published 2009).

Legend:
colorectal cancer = settings: chronic aspirin use; cited from earlier work
[1] = test system: villous adenomas of the cecum; settings: 30 mg weekly, for up to 20 months; cited from earlier work
sporadic colonic polyps = settings: cited from earlier work; for regression of adenomatous polyps, small pilot study: sporadic colonic polyps
[2] = test system: skin graft from donor B6 black mice; assay: Skin graft from donor B6 black mice transplanted to recipient BALB/c mice: graft rejection/survival; type: in vivo
Experimental: (§1) Skin from donor B6 black mice was transplanted to recipient white BALB/c mice. […] To determine the effects of these agents on secondary tumor development, BALB/c mice were also injected subcutaneously with MC-26 colorectal cancer cells and were treated for 22 days with the above regimens. A second control group included mice that were not injected with tumor cells and received no treatment.
(§2) The inventors subcutaneously injected 2×10^4 MC-26 cells (mouse colorectal adenocarcinoma cell line) into the flanks of 6-8 week old BALB/c mice. Tumor volume was measured at regular intervals during a period of 22 days. […] Skin xenografts from donor black B6 mice were simultaneously transplanted to the backs of the mice.

[3] = Body weight change of MC-26 tumor-bearing BALB/c mice, day 0 to day 22; type: in vivo; settings: compared with mice not injected with tumor cells and untreated
Experimental: (§3) A second control group included mice that were not injected with tumor cells and received no treatment.
as §1

[4] = test system: MC-26 colorectal cancer cells; assay: Subcutaneous MC-26 colorectal cancer tumor growth in BALB/c mice; type: in vivo
Experimental: as §3, §1, §2

[5] = given orally as a tablet; cited from earlier work
[6] = test system: HT-29 colon adenocarcinoma cell line; settings: following sulindac administration; cited from earlier work
flat colorectal mucosa = settings: after treatment with sulindac, FAP subjects; cited from earlier work
colonic polyps = settings: daily dose of 300 mg, taken systemically; cited from earlier work

**Q.** With CC(=O)Oc1ccccc1C(=O)O [aspirin] as the compound, how does the “reduction in the incidence of colorectal cancer” value (colorectal cancer) read?
**A.** 50-70%

**Q.** Which results are given for CN1C(C(=O)Nc2ccccn2)=C(O)c2ccccc2S1(=O)=O [piroxicam]?
**A.** regression of pre-malignant adenomas [1]: dramatic and sustained regression; regression of adenomatous polyps, small pilot study (sporadic colonic polyps): no similar regression

**Q.** What does the source list for CS(=O)(=O)c1ccc(C2=C(c3ccccc3)C(=O)OC2)cc1 [rofecoxib]?
**A.** skin graft rejection (FIG. 3) ([2]; Example 2, 22 days, cyclosporine 20 mg/kg, rofecoxib chow equivalent to a human dose of 25 mg per day): rejected the skin graft; skin graft survival at day 15 ([2]; Example 3, day 15, cyclosporine 20 mg/kg, rofecoxib chow 0.01%, control group 0%): 0%; time by which the skin graft had failed ([2]; Example 3, rofecoxib chow 0.01%): ≤ 11 days; growth and body weight gain (FIG. 2) ([3]; Example 1, day 0 to day 22): continued to grow and gained weight similarly to the control group; growth and body weight gain ([3]; Example 2, 22 days): continued to grow and gained weight similarly to the control group; tumor growth / tumor size (FIG. 1) ([4]; Example 1, treated for 22 days, rofecoxib chow equivalent to a human dose of 25 mg per day): significantly smaller; tumor growth / tumor size (FIG. 4) ([4]; Example 2, treated for 22 days, cyclosporine 20 mg/kg, rofecoxib chow equivalent to a human dose of 25 mg per day): significantly smaller; tumor volume (TV) ([4]; Example 3, 2×10^4 MC-26 cells s.c. in flank, 22 days, rofecoxib chow 0.01%, cyclosporine 20 mg/kg, skin graft transplanted simultaneously, control chow 920.81±511.10): 394.75±273.37 mm^3; tumor volume / tumor growth compared with control chow ([4]; Example 3, 22 days): markedly reduced

**Q.** With CC1=C(CC(=O)O)c2cc(F)ccc2/C1=C\c1ccc([S+](C)[O-])cc1 (stereo not drawn) [sulindac] as the compound, how does the “time to peak plasma concentration after dosing” value [5] read?
**A.** about two

**Q.** What about the “apoptosis in HT-29 cells” value [6] of the same compound?
**A.** induction of apoptosis

**Q.** What about the colonic mucosal apoptosis (flat colorectal mucosa) of the same compound?
**A.** increased levels

**Q.** And the “regression / progression of sporadic colorectal adenomas, multicenter study” value (sporadic colonic polyps; 300 mg daily or 150 mg daily for one year, regardless of dose, nearly 100 subjects)?
**A.** induced regressions and prevented the progression

**Q.** What about the “regression of adenomatous polyps, small pilot study” value (sporadic colonic polyps) of the same compound?
**A.** no similar regression

**Q.** And the “number and size of colonic polyps” value (colonic polyps)?
**A.** significantly decreased
